Test results from patent publication US10712339B2, “Engineering of a novel breast tumor microenvironment on a microfluidic chip” (Arizona Board of Regents on behalf of Arizona State …, priority 2014, dated 2020).

System: Endothelial cells (HUVECs)
Excerpt: To study vasculogenesis and to optimize the ECM composition for endothelial cell sprouting, we first developed a microfluidic model comprised of a single culture region surrounded by the media region. This device was selected to study endothelial growth without the interference of other cell types or the stroma. Since the media channel is in a different compartment from the cell culture region, it facilitated the development of a gradient of biomolecules. To encapsulate endothelial cells fibrin was chosen, as it is known to play a major role in regulating angiogenesis in 3D ECM. Endothelial cells (HUVECs) at a cell density of 20 million cells/ml were injected into the devices and growth and maturation of vascular networks were monitored over a culture period of 5 days. We introduced vascular endothelial growth factor (VEGF) in to the culture media and assessed the subsequent effects on vasculogenesis. VEGF is known as a major growth factor secreted during cancer progression which leads to formation of new blood vessels. […] We primarily compared the diameter and branching of vascular networks and further assessed the permeability of microvessels within each experimental condition.

Substance: VEGF
- permeability of microvessels (VEGF in culture media vs No VEGF control): higher permeability
- structure of endothelial networks (VEGF in culture media vs No VEGF control, 5 day culture): impaired structurally
- diameter of the formed vascular networks (addition of VEGF, endothelial mono-culture in single layer platform): reduced
- endothelial cell morphology and intercellular connections (low and high VEGF conditions vs No VEGF control, from day 1): elongated morphology with intercellular connections
